Consider four molecules from patent US3951746A, “Antibiotics and process for their manufacture” (Schering Corporation, priority 1975, dated 1976).

The subject of data set [1] is Staphylococcus aureus ATCC 6538P. Kind of data set: disc plate assay (microbiological assay). The data set is classed as cell-based.
For data set [2], the system named is Streptococcus pyogenes C. The data set is described as follows: MIC in vitro (Table VIII). To be noted: for MIC: pH 7.4, read-out: Minimum Inhibitory Concentration - MIC.
Data set [3] has as its system Streptococcus pyogenes 6. The data set is described as follows: MIC in vitro (Table VIII). The note with it: for MIC: pH 7.4, read-out: Minimum Inhibitory Concentration - MIC.
Data set [4] relates to Aerobacter aerogenes 3. Kind of data set: MIC in vitro (Table VIII).
The subject of data set [5] is Aerobacter aerogenes 4. Kind of data set: MIC in vitro (Table VIII). The note with it: for MIC: pH 7.4, read-out: Minimum Inhibitory Concentration - MIC.
Data set [6] deals with Escherichia coli Sc. Kind of data set: MIC in vitro (Table VIII). The note with it: for MIC: pH 7.4, read-out: Minimum Inhibitory Concentration - MIC.
For data set [7], the system named is Escherichia coli 5. Kind of data set: MIC in vitro (Table VIII). The note with it: for MIC: pH 7.4, read-out: Minimum Inhibitory Concentration - MIC.
Data set [8] has as its system Escherichia coli 19. Kind of data set: MIC in vitro (Table VIII). To be noted: for MIC: pH 7.4, read-out: Minimum Inhibitory Concentration - MIC.
Data set [9] has as its system Klebsiella pneumoniae Ad KR. The data set is described as follows: MIC in vitro (Table VIII). The note with it: for MIC: pH 7.4, read-out: Minimum Inhibitory Concentration - MIC.
Data set [10] has as its system Klebsiella pneumoniae 17 KR. Kind of data set: MIC in vitro (Table VIII). The note with it: for MIC: pH 7.4, read-out: Minimum Inhibitory Concentration - MIC.
Data set [11] relates to Proteus mirabilis MeF. The data set is described as follows: MIC in vitro (Table VIII). To be noted: for MIC: pH 7.4, read-out: Minimum Inhibitory Concentration - MIC.
Data set [12] has as its system Proteus vulgaris 2. The data set is described as follows: MIC in vitro (Table VIII). The note with it: for MIC: pH 7.4, read-out: Minimum Inhibitory Concentration - MIC.
In data set [13] the test system is Pseudomonas aeruginosa 8689. Kind of data set: MIC in vitro (Table VIII). To be noted: for MIC: pH 7.4, read-out: Minimum Inhibitory Concentration - MIC.
Data set [14] deals with Pseudomonas aeruginosa Miller. Kind of data set: MIC in vitro (Table VIII). The note with it: for MIC: pH 7.4, read-out: Minimum Inhibitory Concentration - MIC.
Data set [15] deals with Salmonella paratyphi B1. Kind of data set: MIC in vitro (Table VIII). To be noted: for MIC: pH 7.4, read-out: Minimum Inhibitory Concentration - MIC.
Data set [16] concerns Salmonella paratyphi B2. Kind of data set: MIC in vitro (Table VIII). The note with it: for MIC: pH 7.4, read-out: Minimum Inhibitory Concentration - MIC.
In data set [17] the test system is Candida albicans 406. The data set is described as follows: MIC in vitro (Table VIII). The note with it: for MIC: pH 7.4, read-out: Minimum Inhibitory Concentration - MIC.
Data set [18] deals with Candida albicans 401. Kind of data set: MIC in vitro (Table VIII). To be noted: for MIC: pH 7.4, read-out: Minimum Inhibitory Concentration - MIC.
The test system of data set [19] is Candida albicans 411. The data set is described as follows: MIC in vitro (Table VIII). The note with it: for MIC: pH 7.4, read-out: Minimum Inhibitory Concentration - MIC.
For data set [20], the system named is Saccharomyces cerevisiae. The data set is described as follows: MIC in vitro (Table VIII). The note with it: for MIC: Saccharomyces cerevisiae, pH 7.4, read-out: Minimum Inhibitory Concentration - MIC.
The subject of data set [21] is gram positive and gram-negative bacteria. It is filed as cell-based.
Data set [22] has as its system kanamycin resistant bacteria. The data set is classed as cell-based.
The subject of data set [23] is bacteria. The data set is classed as cell-based.
For data set [24], the system named is yeast. The data set is classed as cell-based.
Data set [25] deals with gram-positive and gram-negative organisms. Also noted: species or system mice. The note with it: mouse.
A short description of data set [26]: physchem.
Data set [27] relates to Staphylococcus aureus Gray. Further details: species or system mice. The note with it: mouse, in vivo, sc.
Data set [28] concerns Streptococcus pyogenes C. Also noted: species or system mice. The note with it: mouse, in vivo, sc.
The test system of data set [29] is Escherichia coli 10536. Further details: species or system mice. To be noted: mouse, in vivo, sc.
Data set [30] deals with Pseudomonas aeruginosa 8689. Further details: species or system mice. The note with it: mouse, in vivo, sc.
Data set [31] deals with Staphylococcus aureus 209P. Kind of data set: MIC in vitro (Table VIII). The note with it: 24 hours; yeast beef broth (pH 7.4).
Where [32] appears, read: 24 hours, yeast beef broth (pH 7.4).
Setting [33] is: 24 hours, yeast beef broth (pH 7.4), kanamycin-resistant.

Counter-ions that a name gives are not always drawn. Like-named read-outs stand apart in the source and are kept apart here.

On to `CN[C@@H]1[C@@H](O)[C@@H](O[C@@H]2[C@@H](O)[C@H](O[C@H]3OC(C(C)N)=CC[C@H]3N)[C@@H](N)C[C@H]2N)OC[C@]1(C)O` (stereo partly shown) [Verdamicin I Sulfate], for which the “assay potency in the gentamicin assay” value in data set [1] (gentamicin assay) stood at 674 µg/mg. For the same molecule, the MIC in [2] (24 h) came to 0.75 µg/mL; in data set [2] (48 h), 3 µg/mL; in [3] (24 h), 0.3 µg/mL; in [3] (48 h), 0.75 µg/mL; in [4] (24 h, pH 7.4, read-out: Minimum Inhibitory Concentration - MIC), 0.3 µg/mL; in data set [5] (24 h), 0.3 µg/mL. Further, the MIC is 0.3 µg/mL in [5] (48 h); 0.3 µg/mL in [6] (24 h); 0.75 µg/mL in data set [6] (48 h); 0.3 µg/mL in [7] (24 h); 0.75 µg/mL in data set [7] (48 h); 0.3 µg/mL in [8] (24 h). Besides, the MIC in [8] (48 h), in data set [9] (24 h), in [9] (48 h), in [10] (24 h), in [10] (48 h) and in data set [11] (24 h) was 0.3 µg/mL throughout. In addition, the MIC in data set [11] (48 h) amounted to 0.3 µg/mL; in data set [12] (24 h), 0.3 µg/mL; in data set [12] (48 h), 0.3 µg/mL; in data set [13] (24 h), 0.075 µg/mL; in data set [13] (48 h), 0.3 µg/mL; in data set [14] (24 h) it was 0.75 µg/mL. For the same molecule, the MIC in data set [14] (48 h) was 0.75 µg/mL; in data set [15] (24 h), 0.3 µg/mL; in data set [15] (48 h) it was 0.75 µg/mL; in data set [16] (24 h), 0.3 µg/mL; in data set [16] (48 h), 0.3 µg/mL; in data set [17] (24 h), over 10 µg/mL. Moreover, the MIC in data set [17] (48 h), in data set [18] (24 h), in data set [18] (48 h), in [19] (24 h), in data set [19] (48 h) and in data set [20] (24 h) was over 10 µg/mL in each case. Besides, the MIC in [20] (48 h) was over 10 µg/mL.
Broadly, the pKa is the pH at which an ionisable group is half protonated. A high value points to a weaker acid or stronger base. As to `CN[C@@H]1[C@@H](O)[C@@H](O[C@@H]2[C@@H](O)[C@H](O[C@H]3OC(C(C)N)=CC[C@H]3N)[C@@H](N)C[C@H]2N)OC[C@]1(C)O` (stereo partly shown) [Verdamicin I], in [1], the “assay potency in the gentamicin assay” value came out at 1000 µg/mg and the dose response curve result is reported as “parallel to that of gentamicin”. In data set [21], the “antibacterial activity in vitro” value is “broad spectrum of antibacterial activity”. Also, the “activity against kanamycin resistant bacteria” value in [22] is given as “active against kanamycin resistant bacteria”. Also, the “cross resistance with gentamicin” value in data set [23] was “appears to be cross resistant with gentamicin”. Also, in data set [24], the “in vitro activity against yeast” value is reported as “does not exhibit any substantial in vitro activity against yeast”. In data set [25], the “antibacterial activity in vivo” value is “potent antibacterial agent”. In data set [26], this molecule yielded a pKa of 8.1.
Gentamicin: the PD50 is 2.4 mg/kg in [27], 5.0 mg/kg in data set [28], 1.7 mg/kg in data set [29] and 1.7 mg/kg in [30].
On to Gentamicin Sulfate [reference compound], for which the “Minimum Inhibitory Concentration - MIC” value in data set [31] is 0.1 µg/mL; in data set [2] (setting [32]), 3.0 µg/mL; in data set [3] (setting [32]), 1.0 µg/mL; in data set [4] (setting [32]), 0.6 µg/mL; in [5] (setting [32]), 0.3 µg/mL; in data set [6] (setting [32]), 0.75 µg/mL. Also, the “Minimum Inhibitory Concentration - MIC” value in [7] (setting [32]), in data set [8] (setting [32]), in data set [9] (setting [33]), in data set [10] (setting [33]), in data set [11] (setting [32]) and in data set [12] (setting [32]) was 0.3 µg/mL each time. For the same molecule, the “Minimum Inhibitory Concentration - MIC” value is 0.3 µg/mL in data set [13] (setting [32]); 0.5 µg/mL in [14] (setting [32]); 1.0 µg/mL in data set [15] (setting [32]); 0.5 µg/mL in data set [16] (setting [32]); over 50 µg/mL in data set [17] (setting [32]); over 50 µg/mL in [18] (setting [32]). In addition, the “Minimum Inhibitory Concentration - MIC” value in data set [19] (setting [32]) and in data set [20] (setting [32]) was over 50 µg/mL throughout.
